Data from PMC6259253, “Synthesis of Benzofuran Derivatives via Rearrangement and Their Inhibitory Activity on Acetylcholinesterase” (Molecules, 2010).

molecular target: T1, AChE (Rattus norvegicus, UniProt P37136); test: biochemical; settings: AChE from rat brain homogenate; Ellman's method; means ± standard deviation of three independent experiments; read-out: AChE inhibition (IC50)
T1 construct: utilizing freshly prepared AChE from rats brain homogenate; from tissue; host or cells: rat whole brain except cerebellum, homogenate
Description: AChE activity was measured in duplicate by the spectrophotometric method reported by Ellman et al. with some modifications, mainly involving the source of the enzyme and the reference compound. Rat brain homogenate was used as the enzyme source. The whole brain except for the cerebellum was homogenized in nine volumes of 100 mM sodium phosphate buffer (pH 7.0). The test compounds were dissolved in dimethyl sulphoxide (DMSO). The AChE activity was expressed as a change in OD at 412 nm.

T1 sequence (P37136 32-614): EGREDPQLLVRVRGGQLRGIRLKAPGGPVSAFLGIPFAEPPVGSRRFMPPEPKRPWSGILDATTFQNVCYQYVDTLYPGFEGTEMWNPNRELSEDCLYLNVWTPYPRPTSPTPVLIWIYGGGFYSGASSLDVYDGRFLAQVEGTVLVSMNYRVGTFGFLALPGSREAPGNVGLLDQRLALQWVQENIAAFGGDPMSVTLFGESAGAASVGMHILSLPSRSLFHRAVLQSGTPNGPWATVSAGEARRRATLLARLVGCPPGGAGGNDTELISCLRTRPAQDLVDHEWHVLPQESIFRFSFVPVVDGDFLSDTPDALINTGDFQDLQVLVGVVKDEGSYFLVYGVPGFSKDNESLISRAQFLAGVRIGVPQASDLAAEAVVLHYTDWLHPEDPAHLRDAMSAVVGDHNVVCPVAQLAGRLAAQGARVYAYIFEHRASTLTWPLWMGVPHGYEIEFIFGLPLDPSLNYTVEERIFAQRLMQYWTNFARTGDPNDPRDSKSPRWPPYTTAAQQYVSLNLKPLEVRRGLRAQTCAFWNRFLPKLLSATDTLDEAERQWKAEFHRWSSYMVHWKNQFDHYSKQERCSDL

SMILES	IC50 [µM]
Cc1ccc2oc(C(=O)N3CCN(c4ccccc4C)CC3)c(N3CCOCC3)c2c1 [Compound A2, (4-o-Tolylpiperazin-1-yl)-(5-methyl-3-morpholinobenzofuran-2-yl) methanone]	32 ± 0.1
COc1ccc(N2CCN(C(=O)c3oc4ccc(C)cc4c3N3CCOCC3)CC2)cc1 [Compound A5, (4-(4-Methoxyphenyl)piperazin-1-yl) (5-methyl-3-morpholinobenzofuran-2-yl) methanone]	21 ± 0.1
Cc1ccc(N2CCN(C(=O)c3oc4ccc(C)cc4c3N3CCOCC3)CC2)cc1 [Compound A4, (4-p-Tolylpiperazin-1-yl)-(5-methyl-3-morpholinobenzofuran-2-yl) methanone]	11 ± 0.2
